Measurements published in patent publication US11752132B2, “Materials and methods for improving gastrointestinal function” (University of Florida Research Foundation, Incorporated, priority 2010, dated 2023).
Where “and” joins values, the source holds several entries; their conditions need not be identical. Equal values may be shown once. Entries after “also recorded” stand apart in the source; their conditions may differ. Read-outs that look alike come from different tables or passages of the source.

Columns and labels:
small intestine mucosa = conditions: mouse, in vivo
Method: Following each injection, transepithelial ISC, an indicator of net anion secretion, is measured using an Ussing chamber, at time points as indicated in FIG. 20. For each measurement, a minimum of 32 tissues is examined.

[1] = test system: jejunal mucosa (net anion secretion); assay: Ussing chamber transepithelial short circuit current (Isc) with transport blockers/forskolin; assay type: cell-based, mice; conditions: for basal Isc after bumetanide: 100 μM bumetanide in bath solution
Excerpt: To study active HCO3^− secretion, 8-week-old, non-irradiated and irradiated, male BALB/c mice were obtained from the National Cancer Institute. Mice were randomly divided into groups, and abdomens were irradiated according to the gastrointestinal acute radiation syndrome (GI ARS) model with a Shepherd Mark-I, using a ^137Cs source delivering γ-irradiation at 1.84 Gy/min. Radiation was given as a single fraction. The GI ARS model will achieve maximum radiation damage to intestinal tissues, and mimics intestinal injury during radiation therapy of pelvic or abdominal tumors.
Changes in short circuit current (Isc), both as a function of time following radiation and with increasing doses of radiation, were examined to determine the earliest time and the minimum radiation dose required to produce significant changes in Isc. These studies were approved by the University of Rochester Animal Care and Use Committee.
Following exsanguinations, jejunal segment was obtained by excluding the distal 12 cm of small intestine adjacent to the caecum. This segment was washed and flushed in ice-cold Ringer's solution before the mucosa was stripped from the underlying muscular layers (Zhang, Ameen et al. 2007). The mucosa was mounted between the 2 halves of an Ussing-type Lucite chamber with an area of 0.30 cm^2 (P2304, Physiologic instruments, San Diego, Calif. 92128 USA), and electrical parameters were recorded using a voltage/current clamp device (VCC MC-8, Physiologic instruments, San Diego, Calif. 92128 USA) (Vidyasagar et al. 2005; Vidyasagar et al. 2004; Zhang et al. 2007; Vidyasagar and Ramakrishna 2002).
To determine the contribution of NKCC1 to basal Isc, 100 μM bumetanide (Sigma-Aldrich Co., USA) was added to the bath solution.
To determine whether the bumetanide-insensitive portion of Isc occurs via an apical membrane anion channel, a non-specific anion channel blocker, 5-nitro-2-(3-phenylpropylamino)-benzoic acid (Sigma-Aldrich Co., USA) (10 μM NPPB), and a specific cystic fibrosis transmembrane conductance regulator (CFTR) blocker (100 μM glibenclamide, Sigma-Aldrich Co., USA) were applied.

[2] = test system: jejunum (HCO3^− secretion); assay: pH stat measurement of HCO3^− secretion in stripped jejunal sheets; assay type: cell-based, mice; conditions: for forskolin-stimulated HCO3^− secretion after blocker: 0 Gy + forskolin, blocker on luminal side (100 μM glibenclamide; NPPB)
Method: A Bi-burette TIM 856 (Radiometer Analytical SAS, Villeurbanne, France) was used to measure HCO3^− secretion in stripped jejunal sheets (Vidyasagar et al. 2005; Vidyasagar et al. 2004; Zhang et al. 2007). Automated pumps maintained a constant pH for luminal solution through the addition of 0.01 μl of 0.025 M sulfuric acid (H2SO4). Standard-to-stat pH calibration was established by adding a known quantity of H2SO4 to a weak buffering solution, which contains an increasing concentration of HCO3^− to produce a linear titration curve.
Jejunal tissues were exposed to a buffered solution on the bath side (serosal side), while the luminal side was exposed to an HCO3^− free, low-buffered solution (0.1-mM HEPES (4-(2-hydroxyethyl)-1-piperazineethanesulfonic acid) buffer, pH 7.4). The HCO3^− secretion was equivalent to the amount of acid added to the luminal solution to maintain the pH at 7.4 (or the stat pH). All experiments were performed under voltage-clamp conditions. HCO3^−-free solution was gassed with 100% O2 and HCO3^−-containing solution was gassed with 95% O2 and 5% CO2. The HCO3^− secretion was expressed as μeq h^−1·cm^−2 (Vidyasagar et al. 2005; Vidyasagar et al. 2004; Zhang et al. 2007).
After the tissue was mounted, HCO3^− secretions were initially present in the absence of bath HCO3^−, but rapidly fell towards 0 within 20-30 minutes. If bath HCO3^− was not present during the titration, the HCO3^− secretion remained close to 0. […] When inhibitors were added to the mucosal solution, the pH was adjusted and allowed to equilibrate for 30 minutes, until a steady rate of HCO3^− secretion was observed. When the inhibitor was added to the bath side, the tissue was also equilibrated for 30 minutes to achieve a steady rate of HCO3^− secretion (see Table 3).
All experiments were performed during the initial 1-hour steady-state period. 1 tissue from each animal was used for each experiment; only 1 experimental condition was studied with each tissue sample. All experiments were repeated for at least 4 times.

[3] = test system: jejunal mucosa (net anion secretion); assay: Ussing chamber transepithelial short circuit current (Isc) with transport blockers/forskolin; assay type: cell-based, mice; conditions: 10 μM bumetanide
glutamine transporter = assay: Glutamine-stimulated Isc / saturation kinetics of glutamine transporter; assay type: cell-based, mice; conditions: increasing IR dose
GI tract mucosa = conditions: animal studies; cited from earlier work
[4] = test system: patients who have received pelvic radiation therapy; conditions: oral glutamine feeding; patients after pelvic radiation therapy; cited from earlier work
[5] = test system: mice with injury to small intestine mucosa; assay: Oral administration of candidate nutrients in radiation, chemotherapy and Crohn's disease models
Method: In a Crohn's disease model, mice are injected with anti-CD3 mAb (acute inflammatory model to mimic conditions of Crohn's disease).
The alterations of absorptive capacity of nutrients are determined using disease models with injury to small intestine mucosa, i.e., the radiation model, chemotherapy model, and the Crohn's disease model. Specifically, a candidate nutrient is orally administered to control mice and mice that received irradiation, chemotherapy, and anti-CD3 mAb, respectively. In addition, compositions containing various combinations of the candidate nutrients are orally administered.
To determine the absorptive capacity of each nutrient, bioelectric measurements are performed using an Ussing chamber. The measurements include: a) the sodium coupled-amino acid current (ISC) and changes in conductance, b) changes in saturation kinetics of each nutrient and changes in the ISC following the administration of each nutrient; and c) the electrolyte absorption studies using isotope flux studies in the presence and absence of the specific candidate nutrient.

IR mice = conditions: lysine 20 mg/mice/day orally for 5 days, thereafter every other day
Excerpt: Gavage was used during the experiment, and treatments were given on the first 5 days after irradiation and every other day until 10 days after irradiation.

lysine-transporter = assay: Lysine-stimulated Isc / lysine transport kinetics; assay type: cell-based, mice
[6] = clinical trials; cited from earlier work
[7] = oral administration, radiation, chemotherapy and Crohn's disease models
[8] = oral feeding of an irradiated subject

## O=c1[nH]cc(F)c(=O)[nH]1 [5-FU, 5-fluorouracil]
Small intestine mucosa
  net anion secretion (transepithelial ISC): significant increase in net anion secretion
  toxicity to small intestine: maximum toxicity to small intestine

## CCCCNc1cc(C(=O)O)cc(S(N)(=O)=O)c1Oc1ccccc1 [bumetanide]
[1]; 0-Gy mice, 1.6±0.2 without
  basal Isc after bumetanide: 0.9±0.1 μeq·h^−1·cm^−2
[1]; 0 Gy
  forskolin-stimulated Isc after bumetanide: 1.3±0.2 μeq·h^−1·cm^−2
[1]; 3 Gy
  forskolin-stimulated Isc after bumetanide: 0.4±0.1 μeq·h^−1·cm^−2
[1]; bumetanide on bath side, Cl^−-free solution on both sides
  basal and forskolin-stimulated increase in Isc: did not inhibit basal and forskolin-stimulated increase in Isc
[1]; irradiated (3 Gy) tissues, 5.5±0.5 without
  basal Isc after bumetanide: 0.6±0.1 μeq·h^−1·cm^−2
[2]; 0 Gy + bumetanide, tissues treated with forskolin, Cl^−-free lumen solution
  HCO3^− secretion: 8.4 ± 0.4^ μeq·h^−1·cm^−2
[2]; 3 Gy + bumetanide, Cl^−-free lumen solution
  HCO3^− secretion: 0.8 ± 0.1^ns μeq·h^−1·cm^−2
[3]
  Isc associated with IR: abolished almost all of the Isc associated with IR

## COc1ccc(Cl)cc1C(=O)NCCc1ccc(S(=O)(=O)NC(=O)NC2CCCCC2)cc1 [glibenclamide]
[1]; 0-Gy mice, 10 μM NPPB, 100 μM glibenclamide
  bumetanide-insensitive Isc after mucosal addition of blocker: 0.1±0.01 μeq·h^−1·cm^−2
[2]; 0 Gy + bumetanide, tissues treated with forskolin, 100 μM blocker in lumen solution
  HCO3^− secretion: 0.5 ± 0.1^ μeq·h^−1·cm^−2
[2]
  forskolin-stimulated HCO3^− secretion after blocker: 0.1 ± 0.1^ μeq·h^−1·cm^−2
[2]; listed as Glibenclamide
  forskolin-stimulated HCO3^− secretion after blocker: 0.1±0.1 μeq·h^−1·cm^−2
[2]; 0 Gy, blocker in lumen solution (100 μM DIDS or glibenclamide)
  HCO3^− secretion: 0.5 ± 0.1^ μeq·h^−1·cm^−2
[2]; 3 Gy + bumetanide, 100 μM blocker in lumen solution
  HCO3^− secretion: 0.2 ± 0.1^ns μeq·h^−1·cm^−2
[2]; 3 Gy, blocker in lumen solution / mucosal addition (100 μM DIDS or glibenclamide; NPPB)
  HCO3^− secretion: 0.11±0.1 μeq·h^−1·cm^−2 and 0.1 ± 0.1^ns μeq·h^−1·cm^−2

## NC(=O)CC[C@H](N)C(=O)O [glutamine]
Glutamine transporter; FIG. 15
  Km of glutamine transporter (saturation kinetics): IR dose-dependent increase in Km
Glutamine transporter; FIG. 15 legend
  glutamine-stimulated Isc: dose-dependent increase in glutamine-stimulated Isc
GI tract mucosa
  protection of GI tract mucosa from injury caused by chemotherapy or radiation therapy: protects both upper and lower GI tract mucosa from injury
[4]
  prevention or alleviation of acute diarrhea: fail to show that oral glutamine feeding can prevent or alleviate acute diarrhea
[5]; [7]
  small intestine mucosa barrier: impairs small intestine mucosa barrier
  survival of mice: has adverse effects on survival of mice
[5]; [8]
  osmotic diarrhea: cause osmotic diarrhea
  survival: reduced survival

## NCCCC[C@H](N)C(=O)O [lysine]
IR mice
  survival of IR mice with oral lysine: increased survival; also recorded: can increase survival in mice
IR mice; listed as Lysine
  survival of IR mice with oral lysine: increased survival
lysine-transporter
  Isc on addition of lysine to small intestine lumen side: causes an increase in Isc
lysine-transporter; 3 Gy IR tissues
  Km: 270 ± 10 µM
lysine-transporter; increasing IR dose, FIG. 16 legend
  lysine-stimulated Isc: dose-dependent decrease in lysine-stimulated Isc
lysine-transporter; tissues from non-IR mice
  Km: 1160 ± 40 µM
[5]; [8]
  survival: prolongs survival
[5]; radiation, chemotherapy and Crohn's disease models, each amino acid
  effect of oral administration on small intestine healing, paracellular conductance, electrolyte absorption, survival: improve small intestine healing, reduces paracellular conductance (thereby improving small intestine mucosal barrier mechanism), increases absorption of electrolytes, and/or improves survival in animals

## sucralfate
[6]
  reduction of acute GI symptoms (diarrhea prophylaxis): only a moderate reduction of acute GI symptoms was achieved
